From patent publication EP4570798A1, “AROMATIC HETEROCYCLIC CYCLOHEXYL AMINOALKYL PIPERIDINE DERIVATIVE, PREPARATION METHOD AND USE THEREOF” (Jiangsu NHWA Pharmaceutical Co., Ltd, priority 2022, dated 2024)

Columns and labels:
[1] = target: T1, 5-HT1A (Homo sapiens, UniProt P08908); assay: In vitro 5HT1A receptor function experiment (cAMP, forskolin-stimulated HEK293/5HT1A cells); assay type: cell-based; parameters: expressed in transfected cells; host or cells: HEK293; conditions: for EC50: forskolin 1 µM; for Emax: maximum activation rate
T1 sequence (P08908 1-422): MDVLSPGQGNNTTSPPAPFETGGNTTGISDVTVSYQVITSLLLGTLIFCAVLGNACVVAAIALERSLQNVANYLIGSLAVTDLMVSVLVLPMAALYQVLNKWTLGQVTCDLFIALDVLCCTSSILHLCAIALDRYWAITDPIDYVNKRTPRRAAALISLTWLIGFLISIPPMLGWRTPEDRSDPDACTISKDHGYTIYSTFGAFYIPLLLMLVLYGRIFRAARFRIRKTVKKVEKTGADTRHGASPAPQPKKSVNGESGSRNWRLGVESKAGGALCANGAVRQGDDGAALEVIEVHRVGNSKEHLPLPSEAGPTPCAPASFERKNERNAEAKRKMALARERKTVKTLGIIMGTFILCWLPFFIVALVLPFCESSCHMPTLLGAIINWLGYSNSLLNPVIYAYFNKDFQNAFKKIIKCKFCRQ
Method: 1.1.1 Cell information: HEK293/5HT1A: a stably transfected cell strain HEK293/5HT1A constructed by adopting 5HT1A receptor lentivirus to infect HEK293; growth culture medium: DMEM, 10% FBS, and 0.6 µg/mL puro; and cryopreservation culture medium: 70% culture medium, 20% FBS, and 10% DMSO.

[2] = target: T2, Dopamine D3 receptor (Homo sapiens, UniProt P35462); assay: In vitro dopamine D3 receptor function experiment (CHO-K1/D3/CRE reporter, chemiluminescence); assay type: cell-based; conditions: for EC50: forskolin 0.4 µM; for Emax: maximum activation rate
T2 construct: expressed in transfected cells; host or cells: CHO-K1
Method: 3.1.1 Cell information: CHO-K1/D3/CRE constructed by referring to the method in Example 5 of CN114369578A.
The first day: cell plating • (1) The cultured cells were digested with trypsin, and after the digestion was terminated with culture medium, the cell suspension was transferred to a centrifuge tube and centrifuged at 750 rpm for 5 min. • (2) The supernatant was discarded, and the pellet was resuspended in an appropriate amount of plating medium.
The following day: experimental detection • (1) The test compounds were diluted to 0.2 mM with DMSO, and the reference compound dopamine was diluted to 0.02 mM. • (2) Compound dilution (4-fold dilution at 8 concentration points) was performed using Bravo, with the starting concentrations of the test compounds and the reference compound being 5 µM and 500 nM, respectively. […] The program selected was an ultrasensitive chemiluminescence detection program.

[3] = In vitro liver microsome stability, CD-1 mouse; conditions: for CLint scaled at 1 µM / half-life at 1 µM / microsomal CLint at 1 µM: CD-1, mouse, liver microsomes, pH 7.4; for CLint(liver): CD-1 mouse liver microsomes
Method: (§1) • (1) Buffer preparation: 73.21 g of dipotassium hydrogen phosphate trihydrate and 10.78 g of potassium dihydrogen phosphate were dissolved in 4000 mL of ultrapure water. The pH of the solution was adjusted to within 7.40 ± 0.10 using 10% phosphoric acid or 1 M potassium hydroxide, resulting in a final concentration of 100 mM. • (2) Solution preparation and dilution: Stock solutions of the test compounds at a concentration of 10 mM were prepared in dimethyl sulfoxide (DMSO) and stored at 4 °C, and they were diluted into 100 µM working solutions with pure acetonitrile when used. A stock solution of the control compound testosterone at a concentration of 10 mM was prepared in DMSO and stored at -20 °C, and it was diluted into a 400 µM working solution with pure acetonitrile when used. • (3) Termination solution preparation: The termination solution was acetonitrile containing the internal standard buspirone. The prepared termination solution was stored in a refrigerator at 2-8 °C. • (4) Liver microsome solution preparation: Microsomes from various species (CD-1 mouse, SD rat, and human) were diluted into a 20× working solution using 100 mM potassium phosphate buffer. The final concentration of the microsomes in the reaction system was 0.5 mg/mL. • (5) Reduced nicotinamide adenine dinucleotide phosphate (NADPH) regeneration system preparation: Appropriate amounts of nicotinamide adenine dinucleotide phosphate (NADP), glucose-6-phosphate (G6P), magnesium chloride (MgCl2), and glucose-6-phosphate dehydrogenase (G6PDH) were weighed to prepare stock solutions at concentrations of 65.33 mM, 330 mM, 300 mM, and 250 Units/mL, respectively. The four stock solutions described above were each added to an appropriate amount of buffer, and the mixture was mixed well by gently inverting up and down. […] Several incubation plates were prepared and named T0, T5, T10, T20, T40, T60, PB60, and NCF60, respectively. […] The NCF60 plate was incubated for 60 min with potassium phosphate buffer replacing the NADPH regeneration system solution. The PB60 plate was incubated for 60 min with potassium phosphate buffer replacing the liver microsomes. Samples under all conditions were prepared in triplicate.
(§2) 2 µL of the test compound or control compound and 100 µL of microsome working solution (containing 1 mg/mL liver microsome protein) were added to each of the T0, T5, T10, T20, T40, T60, and NCF60 plates, and 2 µL of the test compound and 100 µL of potassium phosphate buffer were added to the PB60 plate. The plates described above were then pre-incubated in a 37 °C water bath for about 5 min.
(§3) After the pre-incubation, 600 µL of the termination solution was first added to the T0 samples, followed by the addition of 98 µL of NADPH regeneration system working solution. The plate was sealed, shaken, and then allowed to wait for simultaneous processing with subsequent samples. Except for the NCF60 plate where 98 µL of potassium phosphate buffer was added to each sample well, 98 µL of NADPH regeneration system working solution was added to each sample well of the other incubation plates to initiate the reaction. In the reaction system, the final concentrations of the test compound and the control compound were 1 µM and 4 µM, respectively, the concentration of the liver microsomes was 0.5 mg/mL, and the final concentrations of DMSO and acetonitrile were 0.01% (v/v) and 0.99% (v/v), respectively.
(§4) After incubation for an appropriate time (such as 5, 10, 20, 40, and 60 min), 600 µL of the termination solution containing the internal standard was added to each test compound sample and control compound well to terminate the reaction. The plates were sealed, shaken well, and then centrifuged at 4000 ×g and 4 °C for 15 min.

[4] = In vitro liver microsome stability, SD rat; conditions: for CLint(liver): SD rat liver microsomes; for CLint scaled at 1 µM / half-life at 1 µM / microsomal CLint at 1 µM: SD, rat, liver microsomes, pH 7.4
Method: as §1, §2, §3, §4

[5] = In vitro liver microsome stability, human; conditions: for CLint(liver): Human liver microsomes; for CLint scaled at 1 µM / half-life at 1 µM / microsomal CLint at 1 µM: human, liver microsomes, pH 7.4
Method: as §1, §2, §3, §4

T2 sequence (P35462 whole entry, species assumed): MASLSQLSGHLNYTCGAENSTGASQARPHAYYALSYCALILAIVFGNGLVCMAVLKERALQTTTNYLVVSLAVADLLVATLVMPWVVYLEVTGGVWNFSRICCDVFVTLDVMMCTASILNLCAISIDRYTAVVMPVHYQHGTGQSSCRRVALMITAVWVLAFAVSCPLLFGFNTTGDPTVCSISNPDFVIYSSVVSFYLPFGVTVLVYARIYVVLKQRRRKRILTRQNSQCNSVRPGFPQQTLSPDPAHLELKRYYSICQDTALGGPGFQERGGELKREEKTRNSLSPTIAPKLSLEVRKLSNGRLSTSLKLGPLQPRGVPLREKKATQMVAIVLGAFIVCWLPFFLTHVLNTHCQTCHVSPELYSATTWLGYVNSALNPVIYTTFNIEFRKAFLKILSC

EC50 [1] [nM]	Emax [1] [%]	EC50 [2] [nM]	Emax [2] [%]	SMILES	further results
48	115	–	–	CCCN(CC1CCN(C(=O)c2ccc(F)c(Cl)n2)CC1)[C@H]1CCc2nc(N)sc2C1 [Example 18, (S)-(4-(((2-Amino-4,5,6,7-tetrahydrobenzo[d]thiazol-6-yl)(propyl)amino)methyl)piperidin-1-yl)(6-chloro-5-fluoropyridin-2-yl)methanone]	–
107	118	2.8	111	CCCN(CC1CCN(C(=O)C2CCCCC2)CC1)[C@H]1CCc2nc(N)sc2C1 [Example 29, (S)-(4-(((2-Amino-4,5,6,7-tetrahydrobenzo[d]thiazol-6-yl)(propyl)amino)methyl)piperidin-1-yl)(cyclohexyl)methanone]	–
41.9	112	1.3	106	CCCN(CC1CCN(C(=O)c2ccco2)CC1)[C@H]1CCc2nc(N)sc2C1 [Example 25, (S)-(4-(((2-Amino-4,5,6,7-tetrahydrobenzo[d]thiazol-6-yl)(propyl)amino)methyl)piperidin-1-yl)(furan-2-yl)methanone]	–
124	120	3.6	103	CCCN(CC1CCN(S(=O)(=O)c2ccc(F)c(Cl)c2)CC1)[C@H]1CCc2nc(N)sc2C1 [Example 31, (S)-N^6-((1-((3-Chloro-4-fluorophenyl)sulfonyl)piperidin-4-yl)methyl)-N^6-propyl-4,5,6,7-tetrahydrobenzo[d]thiazole-2,6-diamine]	–
–	–	2.9	122	CCCN(CC1CCN(c2cccc(Cl)c2Cl)CC1)[C@H]1CCc2nc(N)sc2C1 [Example 7, (S)-N^6-((1-(2,3-Dichlorophenyl)piperidin-4-yl)methyl)-N^6-propyl-4,5,6,7-tetrahydrobenzo[d]thiazole-2,6-diamine]	–
202	101	–	–	CCCN(CC1CCN(C(=O)c2ccc3ccccc3c2)CC1)[C@H]1CCc2nc(N)sc2C1 [Example 23, (S)-(4-(((2-Amino-4,5,6,7-tetrahydrobenzo[d]thiazol-6-yl)(propyl)amino)methyl)piperidin-1-yl)(naphthalen-2-yl)methanone]	–
131	115	–	–	CCCN(CC1CCN(C(=O)c2ccc(C#N)nc2)CC1)[C@H]1CCc2nc(N)sc2C1 [Example 20, (S)-5-(4-(((2-Amino-4,5,6,7-tetrahydrobenzo[d]thiazol-6-yl)(propyl)amino)methyl)piperidine-1-carbonyl)pyridinecarbonitrile]	–
4.7	85.1	–	–	CCCN(CC1CCN(C(=O)c2ccc(F)c(Cl)c2)CC1)[C@H]1CCc2nc(N)sc2C1 [Example 15, (S)-(4-(((2-Amino-4,5,6,7-tetrahydrobenzo[d]thiazol-6-yl)(propyl)amino)methyl)piperidin-1-yl)(3-chloro-4-fluorophenyl)methanone]	–
31.4	115	–	–	CCCN(CC1CCN(c2cccc3sccc23)CC1)C1CCc2nc(N)sc2C1 (stereo not drawn) [Example 12, N^6-((1-(Benzo[b]thiophen-4-yl)piperidin-4-yl)methyl)-N^6-propyl-4,5,6,7-tetrahydrobenzo[d]thiazole-2,6-diamine]	–
35.9	118	3	133	CCN(CC1CCN(c2cccc3sccc23)CC1)[C@H]1CCc2nc(N)sc2C1 [Example 13, (S)-N^6-((1-(Benzo[b]thiophen-4-yl)piperidin-4-yl)methyl)-N^6-ethyl-4,5,6,7-tetrahydrobenzo[d]thiazole-2,6-diamine]	–
51.6	114	1.1	109	CCCN(CC1CCN(C(=O)c2ccccc2)CC1)[C@H]1CCc2nc(N)sc2C1 [Example 17, (S)-(4-(((2-Amino-4,5,6,7-tetrahydrobenzo[d]thiazol-6-yl)(propyl)amino)methyl)piperidin-1-yl)(phenyl)methanone]	CLint scaled at 1 µM [3]: 38.6 to 210 mL/min/kg; half-life at 1 µM [3]: 79.8 min; microsomal CLint at 1 µM [3]: 17.4 µL/min/mg; CLint(liver) [3]: 68.8 mL/min/K g; CLint(liver) [4]: 76.9 mL/min/K g; CLint scaled at 1 µM [4]: 23.7 to 129 mL/min/kg; half-life at 1 µM [4]: 32.4 min; microsomal CLint at 1 µM [4]: 42.7 µL/min/mg; CLint(liver) [5]: 27.7 mL/min/K g; CLint scaled at 1 µM [5]: 8.9 to 48.3 mL/min/kg; half-life at 1 µM [5]: 45 min; microsomal CLint at 1 µM [5]: 30.8 µL/min/mg
184	99.5	–	–	CCCN(CC1CCN(C(=O)c2ccc(F)nc2)CC1)[C@H]1CCc2nc(N)sc2C1 [Example 19, (S)-(4-(((2-Amino-4,5,6,7-tetrahydrobenzo[d]thiazol-6-yl)(propyl)amino)methyl)piperidin-1-yl)(6-fluoropyridin-3-yl)methanone]	–
75.7	96.5	–	–	CCCN(CC1CCN(C(=O)c2cccs2)CC1)[C@H]1CCc2nc(N)sc2C1 [Example 24, (S)-(4-(((2-Amino-4,5,6,7-tetrahydrobenzo[d]thiazol-6-yl)(propyl)amino)methyl)piperidin-1-yl)(thiophen-2-yl)methanone]	CLint scaled at 1 µM [3]: 38.6 to 210 mL/min/kg; half-life at 1 µM [3]: 46.9 min; microsomal CLint at 1 µM [3]: 29.6 µL/min/mg; CLint(liver) [3]: 117.1 mL/min/K g; CLint(liver) [4]: 75.2 mL/min/K g; CLint scaled at 1 µM [4]: 23.7 to 129 mL/min/kg; half-life at 1 µM [4]: 33.2 min; microsomal CLint at 1 µM [4]: 41.8 µL/min/mg; CLint(liver) [5]: 34.3 mL/min/K g; CLint scaled at 1 µM [5]: 8.9 to 48.3 mL/min/kg; half-life at 1 µM [5]: 36.4 min; microsomal CLint at 1 µM [5]: 38.1 µL/min/mg
99.3	115	–	–	CCCN(CC1CCN(C(=O)c2cc3ccccc3s2)CC1)[C@H]1CCc2nc(N)sc2C1 [Example 22, (S)-(4-(((2-Amino-4,5,6,7-tetrahydrobenzo[d]thiazol-6-yl)(propyl)amino)methyl)piperidin-1-yl)(benzo[b]thiophen-2-yl)methanone]	–
–	–	1.3	105	CCCN(CC1CCN(C(=O)c2cc3ccccc3[nH]2)CC1)[C@H]1CCc2nc(N)sc2C1 [Example 21, (S)-(4-(((2-Amino-4,5,6,7-tetrahydrobenzo[d]thiazol-6-yl)(propyl)amino)methyl)piperidin-1-yl)(1H-indol-2-yl)methanone]	–
143	93.7	–	–	CCCN(CCC1CCN(C(=O)c2ccc(F)c(Cl)c2)CC1)[C@H]1CCc2nc(N)sc2C1 [Example 16, (S)-(4-(2-((2-Amino-4,5,6,7-tetrahydrobenzo[d]thiazol-6-yl)(propyl)amino)ethyl)piperidin-1-yl)(3-chloro-4-fluorophenyl)methanone]	–
16.4	103	1.2	109	CCCN(CC1CCN(C(=O)c2ccc[nH]2)CC1)[C@H]1CCc2nc(N)sc2C1 [Example 26, (S)-(4-(((2-Amino-4,5,6,7-tetrahydrobenzo[d]thiazol-6-yl)(propyl)amino)methyl)piperidin-1-yl)(1H-pyrrol-2-yl)methanone]	–
87.3	99.9	–	–	CCCN(CC1CCN(C(=O)c2cncs2)CC1)[C@H]1CCc2nc(N)sc2C1 [Example 27, (S)-(4-(((2-Amino-4,5,6,7-tetrahydrobenzo[d]thiazol-6-yl)(propyl)amino)methyl)piperidin-1-yl)(thiazol-5-yl)methanone]	CLint scaled at 1 µM [3]: 38.6 to 210 mL/min/kg; half-life at 1 µM [3]: 85.8 min; microsomal CLint at 1 µM [3]: 16.2 µL/min/mg; CLint(liver) [3]: 64.0 mL/min/K g; CLint(liver) [4]: 25.5 mL/min/K g; CLint scaled at 1 µM [4]: 23.7 to 129 mL/min/kg; half-life at 1 µM [4]: 97.9 min; microsomal CLint at 1 µM [4]: 14.2 µL/min/mg; CLint(liver) [5]: 14.7 mL/min/K g; CLint scaled at 1 µM [5]: 8.9 to 48.3 mL/min/kg; half-life at 1 µM [5]: 84.9 min; microsomal CLint at 1 µM [5]: 16.3 µL/min/mg
39.9	125	–	–	CCCN(CC1CCN(S(=O)(=O)c2ccccc2)CC1)[C@H]1CCc2nc(N)sc2C1 [Example 30, (S)-N^6-((1-(Phenylsulfonyl)piperidin-4-yl)methyl)-N^6-propyl-4,5,6,7-tetrahydrobenzo[d]thiazole-2,6-diamine]	–
130	92.6	3.3	109	CCCN(CC1CCN(c2cccc3sccc23)CC1)[C@@H]1CCc2nc(N)sc2C1 [Example 11, (R)-N^6-((1-(Benzo[b]thiophen-4-yl)piperidin-4-yl)methyl)-N^6-propyl-4,5,6,7-tetrahydrobenzo[d]thiazole-2,6-diamine]	–
